For this assay, the target named is T1, tyrosinase from mushroom.
T1 construct: gene PPO1
The assay is described as follows: dopachrome absorbance, […] nm, 96-well plate. To be noted: L-DOPA substrate (2.0 mM stock), phosphate buffer pH 6.8, room temperature. In kind it is biochemical.

Values after ≈ are worked out from the molar mass of the structure shown.

Regarding `O=C(O)CCCCCCCC(=O)O` [azelaic acid], the concentration for half-maximal inhibition (IC50) – broadly, the concentration at which inhibition is half-maximal – was 6455 ± 249 µg/mL (≈ 34.3 mM).

For the origin of these results see article PMC10525257, “Hop Flower Supercritical Carbon Dioxide Extracts Coupled with Carriers with Solubilizing Properties—Antioxidant Activity and Neuroprotective Potential” (Antioxidants, 2023).
